In patent US9227971B2, “Pyrazolo[1,5-a]pyrimidine compounds as mTOR inhibitors” (Merck Sharp & Dohme Corp., priority 2010, dated 2016):
Read-outs that look alike come from different tables or passages of the source.

Experiments:
[1] = test system: phosphorylated AKT Ser473 (pAKT S473), mTORC2 activity, PC3 cells; assay: mTOR target engagement assay, immunofluorescent cell-based, pAKT S473 readout (mTORC2 activity); conditions: PC3 cells
Procedure, shortened: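 After blocking, cells were stained overnight at 4 °C with anti-pAKT S473 antibody, then a fluorescent secondary; inhibition was read as reduced fluorescence intensity.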

[2] = test system: phosphorylated 4E-BP1 Thr37/46 (p4E-BP1 Thr37/46), mTORC1 activity, PC3 cells; assay: mTOR target engagement assay, immunofluorescent cell-based, p4E-BP1 Thr37/46 readout (mTORC1 activity); conditions: PC3 cells, read-out: p4E-BP1 Thr37/46 IC50
Procedure, shortened: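 Read-out is fluorescence intensity of immunostained p4E-BP1 Thr37/46 in fixed PC3 cells, fitted to a logistic curve for IC50 with DMSO-only wells as top. Cells had been exposed to serial compound dilutions for ninety minutes at 37° C in 5% FBS medium with 0.25% DMSO.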

Compound	IC50 ([1]; Homo sapiens, PC-3, Table 3-1) [nM]	IC50 ([2]; Homo sapiens, PC-3, Table 3-1) [nM]	IC50 ([1]; Table 3-1) [nM]	IC50 ([2]; Table 3-1) [nM]
CS(=O)(=O)c1c([C@@H]2C[C@H]3CC[C@@H](C2)N3C(=O)C2(O)CC2)nc2c(-c3ccc(-c4ccccc4)nc3)cnn2c1N [Compound 3.12, ((1R,3s,5S)-3-(7-amino-6-(methylsulfonyl)-3-(6-phenylpyridin-3-yl)pyrazolo[1,5-a]pyrimidin-5-yl)-8-azabicyclo[3.2.1]octan-8-yl)(1-hydroxycyclopropyl)methanone]	100 to 1000	1000 to 10000		
CS(=O)(=O)c1c([C@@H]2C[C@H]3CC[C@@H](C2)N3C(=O)c2ncccc2O)nc2c(-c3ccc(-c4ccccc4)nc3)cnn2c1N [Compound 3.13]	100 to 1000	100 to 1000		
CS(=O)(=O)c1c([C@@H]2C[C@H]3CC[C@@H](C2)N3C(=O)c2cc(O)ccn2)nc2c(-c3ccc(-c4ccccc4)nc3)cnn2c1N [Compound 3.14, ((1R,3s,5S)-3-(7-amino-6-(methylsulfonyl)-3-(6-phenylpyridin-3-yl)pyrazolo[1,5-a]pyrimidin-5-yl)-8-azabicyclo[3.2.1]octan-8-yl)(4-hydroxypyridin-2-yl)methanone]	100 to 1000	1000 to 10000		
CS(=O)(=O)c1c([C@@H]2C[C@H]3CC[C@@H](C2)N3C(=O)C(O)C(F)(F)F)nc2c(-c3ccc(-c4ccccc4)nc3)cnn2c1N (stereo partly drawn) [Compound 3.15, 1-((1R,3s,5S)-3-(7-amino-6-(methylsulfonyl)-3-(6-phenylpyridin-3-yl)pyrazolo[1,5-a]pyrimidin-5-yl)-8-azabicyclo[3.2.1]octan-8-yl)-3,3,3-trifluoro-2-hydroxypropan-1-one]	1000 to 10000	1000 to 10000		
CS(=O)(=O)c1c([C@@H]2C[C@H]3CC[C@@H](C2)N3C(=O)c2ccc(O)cn2)nc2c(-c3ccc(-c4ccccc4)nc3)cnn2c1N [Compound 3.16, ((1R,3s,5S)-3-(7-amino-6-(methylsulfonyl)-3-(6-phenylpyridin-3-yl)pyrazolo[1,5-a]pyrimidin-5-yl)-8-azabicyclo[3.2.1]octan-8-yl)(5-hydroxypyridin-2-yl)methanone]	1 to 100	100 to 1000		
CNC(=O)c1ccc(-c2cnn3c(N)c(S(C)(=O)=O)c([C@@H]4C[C@H]5CC[C@@H](C4)N5C(=O)c4nc[nH]n4)nc23)cn1 [Compound 3.17, 5-(5-((1R,3s,5S)-8-(1H-1,2,4-triazole-3-carbonyl)-8-azabicyclo[3.2.1]octan-3-yl)-7-amino-6-(methylsulfonyl)pyrazolo[1,5-a]pyrimidin-3-yl)-N-methylpicolinamide]	> 10000	1000 to 10000		
CS(=O)(=O)c1c([C@@H]2C[C@H]3CC[C@@H](C2)N3c2nnn[nH]2)nc2c(-c3ccc(-c4ccccc4)nc3)cnn2c1N [Compound 3.18, 5-((1R,3s,5S)-8-(1H-tetrazol-5-yl)-8-azabicyclo[3.2.1]octan-3-yl)-6-(methylsulfonyl)-3-(6-phenylpyridin-3-yl)pyrazolo[1,5-a]pyrimidin-7-amine]	> 10000	> 10000		
CS(=O)(=O)c1c([C@@H]2C[C@H]3CC[C@@H](C2)N3C=O)nc2c(-c3ccc(-c4ccccc4)nc3)cnn2c1N [Compound 3.19, (1R,3s,5S)-3-(7-amino-6-(methylsulfonyl)-3-(6-phenylpyridin-3-yl)pyrazolo[1,5-a]pyrimidin-5-yl)-8-azabicyclo[3.2.1]octane-8-carbaldehyde]	100 to 1000	100 to 1000		
CS(=O)(=O)c1c([C@@H]2C[C@H]3CC[C@@H](C2)N3c2nnc[nH]2)nc2c(-c3ccc(-c4ccccc4)nc3)cnn2c1N [Compound 3.21, 5-((1R,3s,5S)-8-(4H-1,2,4-triazol-3-yl)-8-azabicyclo[3.2.1]octan-3-yl)-6-(methylsulfonyl)-3-(6-phenylpyridin-3-yl)pyrazolo[1,5-a]pyrimidin-7-amine]			1000 to 10000	1000 to 10000
CS(=O)(=O)c1c([C@@H]2C[C@H]3CC[C@@H](C2)N3C(=O)c2nnc[nH]2)nc2c(-c3cnc(-c4ccccc4)c(O)c3)cnn2c1N [Compound 3.22, ((1R,3s,5S)-3-(7-amino-3-(5-hydroxy-6-phenylpyridin-3-yl)-6-(methylsulfonyl)pyrazolo[1,5-a]pyrimidin-5-yl)-8-azabicyclo[3.2.1]octan-8-yl)(4H-1,2,4-triazol-3-yl)methanone]	100 to 1000	1000 to 10000		
CS(=O)(=O)c1c([C@@H]2C[C@H]3CC[C@@H](C2)N3C(=O)CO)nc2c(-c3cnc(-c4ccccc4)c(O)c3)cnn2c1N [Compound 3.23, 1-((1R,3s,5S)-3-(7-amino-3-(5-hydroxy-6-phenylpyridin-3-yl)-6-(methylsulfonyl)pyrazolo[1,5-a]pyrimidin-5-yl)-8-azabicyclo[3.2.1]octan-8-yl)-2-hydroxyethanone]	1000 to 10000	1000 to 10000		
CS(=O)(=O)c1c([C@@H]2C[C@H]3CC[C@@H](C2)N3C(=O)c2nnc[nH]2)nc2c(-c3ccc(-c4nccs4)nc3)cnn2c1N [Compound 3.24, ((1R,3s,5S)-3-(7-amino-6-(methylsulfonyl)-3-(6-(thiazol-2-yl)pyridin-3-yl)pyrazolo[1,5-a]pyrimidin-5-yl)-8-azabicyclo[3.2.1]octan-8-yl)(4H-1,2,4-triazol-3-yl)methanone]	1 to 100	1 to 100		
CS(=O)(=O)c1c([C@@H]2C[C@H]3CC[C@@H](C2)N3C(=O)c2nnc[nH]2)nc2c(-c3cnc4ccc(F)cc4c3)cnn2c1N [Compound 3.25]	1 to 100	1 to 100		
CS(=O)(=O)c1c([C@@H]2C[C@H]3CC[C@@H](C2)N3S(=O)(=O)c2nnc[nH]2)nc2c(-c3ccc(-c4ccccc4)nc3)cnn2c1N [Compound 3.26, 5-((1R,3s,5S)-8-(4H-1,2,4-triazol-3-ylsulfonyl)-8-azabicyclo[3.2.1]octan-3-yl)-6-(methylsulfonyl)-3-(6-phenylpyridin-3-yl)pyrazolo[1,5-a]pyrimidin-7-amine]	100 to 1000	1000 to 10000		
C[C@H](O)C(=O)N1[C@@H]2CC[C@H]1C[C@H](c1nc3c(-c4ccc(-c5ccccc5)nc4)cnn3c(N)c1S(C)(=O)=O)C2 [Compound 3.27]	100 to 1000	100 to 1000		
C[C@@H](O)C(=O)N1[C@@H]2CC[C@H]1C[C@H](c1nc3c(-c4ccc(-c5ccccc5)nc4)cnn3c(N)c1S(C)(=O)=O)C2 [Compound 3.28, (R)-1-((1R,3S,5S)-3-(7-amino-6-(methylsulfonyl)-3-(6-phenylpyridin-3-yl)pyrazolo[1,5-a]pyrimidin-5-yl)-8-azabicyclo[3.2.1]octan-8-yl)-2-hydroxypropan-1-one]	100 to 1000	100 to 1000		
CS(=O)(=O)c1c([C@@H]2C[C@H]3CC[C@@H](C2)N3C(=O)c2nnc(O)[nH]2)nc2c(-c3ccc(-c4ccccc4)nc3)cnn2c1N [Compound 3.29, ((1R,3s,5S)-3-(7-amino-6-(methylsulfonyl)-3-(6-phenylpyridin-3-yl)pyrazolo[1,5-a]pyrimidin-5-yl)-8-azabicyclo[3.2.1]octan-8-yl)(5-hydroxy-4H-1,2,4-triazol-3-yl)methanone]	100 to 1000	100 to 1000		
CNC(=O)N1[C@@H]2CC[C@H]1C[C@H](c1nc3c(-c4ccc(-c5ccccc5)nc4)cnn3c(N)c1S(C)(=O)=O)C2 [Compound 3.30, (1R,3s,5S)-3-(7-amino-6-(methylsulfonyl)-3-(6-phenylpyridin-3-yl)pyrazolo[1,5-a]pyrimidin-5-yl)-N-methyl-8-azabicyclo[3.2.1]octane-8-carboxamide]	100 to 1000	100 to 1000		
